Measurements from patent publication EP4768484A1, “HETEROCYCLIC FUSED RING COMPOUND, AND COMPOSITION AND USE THEREOF” (Shenzhen TargetRx, Inc., priority 2023, dated 2025).

How the values were obtained:
Assay type in all cases: cell-based
Ba/F3 BCR-ABL1 T315I = target: T1, Ba/F3 BCR-ABL1 T315I (Homo sapiens, UniProt P00519+P11274, T315I); assay: Cell growth inhibitory activity assay (CellTiter-Glo), Ba/F3 BCR-ABL1 T315I cells; conditions: 72 h, CTG cell viability
T1 construct: BCR (N-terminal fusion partner of the oncoprotein); expressed in transfected cells; host or cells: Ba/F3 (lentiviral transduction, monoclonal line)
How it was run: (§1)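 Luminescent ATP read-out (CellTiter-Glo) after 72 h compound exposure at 37 °C, 5% CO2. Cells: monoclonal Ba/F3 lentivirally engineered with mutant BCR-ABL1, or parental Ba/F3. A T0 plate read the day after seeding; 0.5% DMSO wells as uninhibited growth control. IC50 via variable-slope logistic fit of % inhibition.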

K562 cells = assay: Cell growth inhibitory activity assay (CellTiter-Glo), K562 cells; conditions: Homo sapiens, 72 h, CTG cell viability
How it was run: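 K562 cells in logarithmic growth were counted, diluted and plated in 96-well plates, with medium-only blanks and a separate T0 plate read by CTG the following day. After overnight incubation, graded compound concentrations were added for 72 h, with 0.5% DMSO wells as growth controls. Luminescence was read on a Biotek cytation3.0, and IC50 came from nonlinear fitting in GraphPad Prism 7.0.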

Ba/F3 parental cells = assay: Cell growth inhibitory activity assay (CellTiter-Glo), Ba/F3 parental cells; conditions: Mus musculus, BaF3, 72 h, CTG cell viability, read-out: IC50 Ba/F3 BCR-ABL1 Parental
How it was run: as §1

Ba/F3 BCR-ABL1 WT = target: T2, Ba/F3 BCR-ABL1 WT (Homo sapiens, UniProt P00519+P11274); assay: Cell growth inhibitory activity assay (CellTiter-Glo), Ba/F3 BCR-ABL1 WT cells; conditions: 72 h, CTG cell viability
T2 construct: BCR (N-terminal fusion partner of the oncoprotein); expressed in transfected cells; host or cells: Ba/F3 (lentiviral transduction, monoclonal line)
How it was run: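 Ba/F3 parental cells or Ba/F3 lines lentivirally transduced with WT or mutant BCR-ABL1, seeded overnight then exposed to serially diluted compound 72 h at 37 °C, 5% CO2. Viability by CellTiter-Glo ATP luminescence with a T0 plate; 0.5% DMSO controls; IC50 from four-parameter nonlinear fit.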

Row | SMILES | IC50 (Ba/F3 BCR-ABL1 T315I) [nM] | IC50 (K562 cells) [nM] | IC50 (Ba/F3 parental cells) [nM] | IC50 (Ba/F3 BCR-ABL1 WT) [nM]
1 | CC(C)n1cc2c(n1)-c1cc(-c3cc(C(=O)Nc4ccc(OC(F)(F)Cl)cc4)cc4nc5n(c34)[C@H](C)COC5)ccc1C2 [T-110, (R)-N-(4-(chlorodifluoromethoxy)phenyl)-6-(2-isopropyl-2,4-dihydroindeno[1,2-c]pyrazol-7-yl)-4-methyl-3,4-dihydro-1H-benzo[4,5]imidazo[2,1-c][1,4]oxazine-8-carboxamide] | 5 to 50 | ≤ 5 | > 1000 | ≤ 5
2 | C[C@@H]1COCc2nc3cc(C(=O)Nc4ccc(OC(F)(F)Cl)cc4)cc(-c4ccc5c(c4)-c4nc(N)sc4C5)c3n21 [T-111, (R)-6-(2-amino-8H-indeno[1,2-d]thiazol-5-yl)-N-(4-(chlorodifluoromethoxy)phenyl)-4-methyl-3,4-dihydro-1H-benzo[4,5]imidazo[2,1-c][1,4]oxazine-8-carboxamide] | 5 to 50 | ≤ 5 | > 1000 | ≤ 5
3 | CC(=O)Nc1nc2c(s1)Cc1ccc(-c3cc(C(=O)Nc4ccc(OC(F)(F)Cl)cc4)cc4nc5n(c34)[C@H](C)COC5)cc1-2 [T-112, (R)-6-(2-acetamido-8H-indeno[1,2-d]thiazol-5-yl)-N-(4-(chlorodifluoromethoxy)phenyl)-4-methyl-3,4-dihydro-1H-benzo[4,5]imidazo[2,1-c][1,4]oxazine-8-carboxamide] | 5 to 50 | ≤ 5 | > 1000 | ≤ 5
4 | C[C@@H]1COCc2nc3cc(C(=O)Nc4ccc(OC(F)(F)Cl)cc4)cc(-c4ccc5c(c4)-c4ncsc4C5)c3n21 [T-113, (R)-N-(4-(chlorodifluoromethoxy)phenyl)-6-(8H-indeno[1,2-d]thiazol-5-yl)-4-methyl-3,4-dihydro-1H-benzo[4,5]imidazo[2,1-c][1,4]oxazine-8-carboxamide] | 5 to 50 | ≤ 5 | > 1000 | ≤ 5
5 | C[C@@H]1CCSc2nc3cc(C(=O)Nc4ccc(OC(F)(F)Cl)cc4)cc(-c4cnccn4)c3n21 [T-116, (R)-N-(4-(chlorodifluoromethoxy)phenyl)-4-methyl-6-(pyrazin-2-yl)-3,4-dihydro-2H-benzo[4,5]imidazo[2,1-c][1,3]thiazine-8-carboxamide] | 5 to 50 | ≤ 5 | > 1000 | ≤ 5
6 | CC(C)n1cnc2cc(C(=O)Nc3ccc(OC(F)(F)Cl)cc3)cc(-c3cnc4c(c3)-c3n[nH]cc3C4)c21 [T-119, N-(4-(chlorodifluoromethoxy)phenyl)-7-(2,4-dihvdropyrazolo[3',4':3,4]cyclopenta[1,2-b]pyridin-7-yl)-1-isopropyl-1H-benzo[d]imidazole-5-carboxamide] | 5 to 50 | ≤ 5 | > 1000 | ≤ 5
7 | CC(C)n1cnc2cc(C(=O)Nc3ccc(OC(F)(F)Cl)cc3)cc(-c3cnc4c(c3)-c3nn(-c5ncccn5)cc3C4)c21 [T-120, N-(4-(chlorodifluoromethoxy)phenyl)-1-isopropyl-7-(2-(pyrimidin-2-yl)-2,4-dihydropyrazolo[3',4':3,4]cyclopenta[1,2-b]pyridin-7-yl)-1H-benzo[d]imidazole-5-carboxamide] | ≤ 5 | ≤ 5 | > 1000 | ≤ 5
8 | CC(C)n1cnc2cc(C(=O)Nc3ccc(OC(F)(F)Cl)cc3)cc(-c3cnc4c(c3)-c3nn(-c5ncc(F)cn5)cc3C4)c21 [T-121, N-(4-(chlorodifluoromethoxy)phenyl)-7-(2-(5-fluoropyrimidin-2-yl)-2,4-dihydropyrazolo[3',4':3,4]cyclopenta[1,2-b]pyridin-7-yl)-1-isopropyl-1H-benzo[d]imidazole-5-carboxamide] | ≤ 5 | ≤ 5 | > 1000 | ≤ 5
